In US10806726B2, “Methods of using indazole-3-carb oxamides and their use as Wnt/B-catenin signaling pathway inhibitors” (Samumed, LLC, priority 2016, dated 2020):

Test system: KC/GRO in plasma
Assay: Rat Tendinopathy Model (2), plasma biomarker KC/GRO
Assay type: in vivo
Protocol: Fifty (50 μl) of Collagenase Type IA (10 mg/ml in PBS, pH 7.4, approximately 469 units/mg) (Catalog # C5138, Sigma, St. Louis, Mo.) was injected into the Achilles tendon of both ankles near the osteotendinous junction of male Sprague Dawley CD® IGS rats (CRL, Inc.), using insulin syringes with 28.5 G needle.
Rats were divided into 6 groups, with 6 animals per group except 8 animals in Group 2: Group 1 (sham injection), Group 2 (Collagenase-Vehicle with 0.5% Phx), Group 3 (Collagenase-compound 175 3 mg/mL with 0.5% BA), Group 4 (Collagenase-compound 175 10 mg/mL with 0.5% BA), Group 5 (Collagenase-compound 175 3 mg/mL with 0.5% Phx) and Group 6 (Collagenase-compound 175 10 mg/mL with 0.5% Phx). […] All rats were periodically observed for any pain, illnesses or abnormalities. At various time points, blood was collected for plasma in lithium heparin coated tubes by saphenous vein bleeding. For histology, rats were euthanized using isoflurane, tendons were isolated (n=8 tendons/group), fixed in 10% buffered formalin (Catalog # SF93-4, Fisher, Pittsburgh, Pa.) and H & E histology staining was performed at a secondary site (Pacific Pathology, San Diego, Calif.). For biochemical analysis, tendons were isolated (n=4 tendons/group), flash frozen in liquid nitrogen and then stored at −80° C. for subsequent biochemical analysis (not reported). Additionally, one (1) day after collagenase injection, 4 tendons were collected from Group 2 (vehicle) to observe the induction of inflammation (not reported).
Following manufacturer's instructions, KC/GRO plasma levels were determined using the KC/GRO Immunoassay kit (Cat #900-K57, Peprotech, Rocky Hill, N.J.). Briefly, 96-well plates were coated with the anti-rat KC/GRO capture antibody overnight and washed to remove excess antibody. Plasma samples were incubated in the coated plates for 2 hours at room temperature. Following washes to remove unbound proteins, biotinylated anti-rat KC/GRO detection antibody was added and incubated for 30 mins at room temperature. Following washes to remove unbound excess antibody, avidin-HRP was added and incubated for 30 mins at room temperature. Following washes to remove unbound avidin-HRP, the ABTS substrate was added and the plates were read on the Cytation 3 plate reader (Biotek Inc., Winooski, Vt.) at an absorbance of 525 nm with correction at 450 nm. All samples were processed in triplicate.

With `COc1ccc(NC(=O)c2n[nH]c3ccc(-c4cncc(CN5CCCCC5)c4)cc23)cn1` [compound 175, N-(6-Methoxypyridin-3-yl)-5-(5-(piperidin-1-ylmethyl)pyridin-3-yl)-1H-indazole-3-carboxamide] the “plasma KC/GRO vs vehicle” value (3 and 10 mg/mL, with either BA or Phx as preservative) was “significantly decreased the levels of KC/GRO in plasma”, the “Plasma KC/GRO Concentration” value (Day 0, Group 3, 3 mg/mL, 0.5% BA) was 78.2 ± 14.9 pg/mL and the “Plasma KC/GRO Concentration” value (Day 0, Group 4, 10 mg/mL, 0.5% BA) was 224 ± 40.1 pg/mL. The “Plasma KC/GRO Concentration” value (Day 0, Group 5, 3 mg/mL, 0.5% Phx) was 112 ± 74.0 pg/mL, the “Plasma KC/GRO Concentration” value (Day 0, Group 6, 10 mg/mL, 0.5% Phx) was 254 ± 60.6 pg/mL and the “Plasma KC/GRO Concentration” value (Day 1, Group 3, 3 mg/mL, 0.5% BA) was 472 ± 47.2 pg/mL. The “Plasma KC/GRO Concentration” value (Day 1, Group 4, 10 mg/mL, 0.5% BA) was 360 ± 31.4 pg/mL, the “Plasma KC/GRO Concentration” value (Day 1, Group 5, 3 mg/mL, 0.5% Phx) was 416 ± 47.9 pg/mL and the “Plasma KC/GRO Concentration” value (Day 1, Group 6, 10 mg/mL, 0.5% Phx) was 375 ± 44.4 pg/mL. The “Plasma KC/GRO Concentration” value (Day 3, Group 3, 3 mg/mL, 0.5% BA) was 449 ± 53.9 pg/mL, the “Plasma KC/GRO Concentration” value (Day 3, Group 4, 10 mg/mL, 0.5% BA) was 454 ± 52.2 pg/mL and the “Plasma KC/GRO Concentration” value (Day 3, Group 5, 3 mg/mL, 0.5% Phx) was 374 ± 89.1 pg/mL. For the same compound, the “Plasma KC/GRO Concentration” value (Day 3, Group 6, 10 mg/mL, 0.5% Phx) was 405 ± 42.1 pg/mL, the “Plasma KC/GRO Concentration” value (Day 5, Group 3, 3 mg/mL, 0.5% BA) was 561 ± 97.2 pg/mL and the “Plasma KC/GRO Concentration” value (Day 5, Group 4, 10 mg/mL, 0.5% BA) was 327 ± 49.9 pg/mL. The “Plasma KC/GRO Concentration” value (Day 5, Group 5, 3 mg/mL, 0.5% Phx) was 431 ± 24.5 pg/mL, the “Plasma KC/GRO Concentration” value (Day 5, Group 6, 10 mg/mL, 0.5% Phx) was 328 ± 37.1 pg/mL and the “Plasma KC/GRO Concentration” value (Day 7, Group 3, 3 mg/mL, 0.5% BA) was 445 ± 54.5 pg/mL. For the same compound, the “Plasma KC/GRO Concentration” value (Day 7, Group 4, 10 mg/mL, 0.5% BA) was 396 ± 92.4 pg/mL, the “Plasma KC/GRO Concentration” value (Day 7, Group 5, 3 mg/mL, 0.5% Phx) was 422 ± 47.9 pg/mL and the “Plasma KC/GRO Concentration” value (Day 7, Group 6, 10 mg/mL, 0.5% Phx) was 299 ± 53.9 pg/mL. For the same compound, the “Plasma KC/GRO Concentration” value (Day 14, Group 3, 3 mg/mL, 0.5% BA) was 319 ± 57.7 pg/mL, the “Plasma KC/GRO Concentration” value (Day 14, Group 4, 10 mg/mL, 0.5% BA) was 343 ± 59.4 pg/mL and the “Plasma KC/GRO Concentration” value (Day 14, Group 5, 3 mg/mL, 0.5% Phx) was 505 ± 41.0 pg/mL. For the same compound, the “Plasma KC/GRO Concentration” value (Day 14, Group 6, 10 mg/mL, 0.5% Phx) was 265 ± 20.8 pg/mL, the “Plasma KC/GRO Concentration” value (Day 21, Group 3, 3 mg/mL, 0.5% BA) was 150 ± 53.8 pg/mL and the “Plasma KC/GRO Concentration” value (Day 21, Group 4, 10 mg/mL, 0.5% BA) was 350 ± 25.6 pg/mL. The “Plasma KC/GRO Concentration” value (Day 21, Group 5, 3 mg/mL, 0.5% Phx) was 226 ± 37.3 pg/mL, the “Plasma KC/GRO Concentration” value (Day 21, Group 6, 10 mg/mL, 0.5% Phx) was 342 ± 39.7 pg/mL and the “plasma KC/GRO levels, range” value (Days 5-21, all four treated groups) was 150 to 561 pg/mL.
